Bridge positions count the residues as written; N and C are the ends. Ends that are not written are not given here.
How the values were obtained:
[1] = system: GD3 positive (Melur) cells; experiment: Reactivity of sera from immunized mice to GD3 positive (Melur) versus GD3 negative (LG2) cells by ELISA; type: in vivo; conditions: following two immunizations, Melur vs LG2 cells, sera day 24 and 38
Experimental: FIGS. 5a and 5b are representations of the selective reactivity of sera from mice immunized with GD3 peptide mimic pMG22-8-1. Immunizations were carried out on […], day 14, day 28 and day 42. Serum samples were collected on day 24 and day 38 and tested for binding to GD3 positive or negative cells. Results are shown for a peptide mimic according to the present invention (pMG22-8-1; FIG. 5b) and control peptide (p763.74; FIG. 5a).
Mice were immunized with peptide pMG22-8-1 (SEQ ID NO:6) on days 0, 14, 28 and 42. Sera was collected on days 24 and 38. The sera was tested for reactivity to GD3 positive (Melur) cells compared with GD3 negative cells (LG2) by ELISA.

[2] = Induction of anti-peptide and anti-carrier antibodies in immunized mice; type: in vivo
From the text: FIGS. 4a, 4b, 4c are representations of induction of the anti-peptide and anti-carrier reponses. Mice were immunized on day 0, 14, 28 and 42. Sera was collected on day 10, 24 and 38. Results are shown for mice immunized with p763.74 (FIG. 4a), pMG22-8-1 (FIG. 4b) and KLH (FIG. 4c). Preimmune sera is indicated as -∘-; reaction against the immunized peptide is indicated as -●-; and reaction against peptide not used for immunization is indicated as -Δ-.
Mice were immunized with pMG22-8-1, p763.74 peptides or KLH. Sera was tested on day 10, 24 and 38. […] In the group immunized with pMG22-8-1, the titer of antibodies reacting against the GD3 peptide mimic is observed.

mAb MG22 = experiment: Inhibition of binding of anti-GD3 mAb MG22 to GD3+ Melur melanoma cells by peptide mimic
From the text: (§1) FIGS. 2a, 2b and 2c are representations of inhibition of binding of anti-GD3 monoclonal antibody to GD3+ cells by peptide mimics of the present invention. Data is shown for pMG21-15-1 (FIG. 2a), pMG21-8-4 (FIG. 2b) and pMG22-8-1 (FIG. 2c) for inhibition of binding of mAb MG22 (-∘-); mAb MG21 (-●-) and mAb 763.74 (-Δ-).
FIG. 3 is a representation of the effect of dithiothrietol (DTT) on inhibition of MG22 binding to GD2/3+Melur cells by […]. […] This inhibitory effect was abolished by the pre-incubation of pMG22-8-1 with 10 mM DTT (—SH), confirming that the inhibitory peptide was in its cyclized form (-S-S-). 763.74, a monoclonal antibody that recognizes another melanoma-associated antigen—the High Molecular Weight-Melanoma Associated Antigen (HMW-MAA), is used here as an irrelevant antibody to show the binding specificity of GD2/3 peptide mimic pMG22-8-1 for mAb MG22; and p763.74 is a HMW-MAA peptide mimic isolated using the mAb 763.74. It is used here as an irrelevant peptide mimic to show the binding specificity of the GD3-specific mAb MG22 for pMG22-8-1.
(§2) For further characterization, the pVIII gene inserts of positive phage clones identified by reverse ELISA were sequenced. Peptides encoded by these sequences were synthesized and then tested for GD3 specificity. This was done by assessing the peptides' ability to compete with MG21 or MG22 for binding to GD3-bearing melanoma cell line in vitro.
(§3) Cyclized pMG21-15-1, pMG21-8-4 and pMG22-8-1 were tested for inhibiting the binding of the anti-GD2 mAb to Melur melanoma cells.
The effect of 10 mM DTT on the inhibition of binding of anti-GD3 mAb to GD3+ cells was investigated.

mAb MG21 = experiment: Inhibition of binding of anti-GD3 mAb MG21 to GD3+ Melur melanoma cells by peptide mimic; conditions: cyclized peptide; FIG. 2a, 2b
From the text: as §1, §2, §3

[3] = target: anti-GD3 monoclonal antibody MG22; experiment: inhibition of mAb MG22 binding to GD2/3+ Melur melanoma cells by cyclized peptide, at 500 µM peptide

MCPTDMPASLCM (disulfide 2-11 (inferred)) [pMG22-8-1, GD3 peptide mimic isolated using MG22 from LX-8 phage library]
mice whose serum reacted selectively to GD3 positive cell line [1]: one out of eight mice
titer of non-specific antibodies reacting to p763.74 (peptide not used for immunization) ([2]; group immunized with pMG22-8-1, FIG. 4b): increase
titer of serum antibodies reacting to the immunogen ([2]; mice immunized day 0, 14, 28, 42, sera day 10, 24, 38): high titer
inhibition of mAb MG22 binding to GD3+ cells after pre-incubation of the peptide with DTT (mAb MG22; 10 mM DTT (reduced, non-cyclized peptide)): abolished
inhibition of binding of MG22 to Melur cells (mAb MG22; at 500 μM peptide, GD2/3+ Melur cells, dose-dependent): up to 72%
inhibition of binding of panning mAb MG22 to Melur melanoma cells (mAb MG22; cyclized peptide, FIG. 2c): inhibited in a specific and dose-dependent manner

QPFPCYSNAPCQSPS (not fully specified (bridges); cysteine pairing not given here) [pMG21-15-1, GD3 peptide mimic isolated using MG21 from X15 phage library]
inhibition of binding of panning mAb MG21 to Melur melanoma cells (mAb MG21): inhibited in a specific and dose-dependent manner

RCPPEYVAADCD (disulfide 2-11 (inferred)) [pMG21-8-4, GD3 peptide mimic isolated using MG21 from LX-8 phage library]
inhibition of binding of panning mAb MG21 to Melur melanoma cells (mAb MG21): inhibited in a specific and dose-dependent manner

MCPTDMPASLCM (disulfide 2-11 (inferred)) [pMG22-8-1]
% inhibition of MG22 binding to Melur cells [3]: 72%
